Values joined by “and” are separate entries in the source; they are usually repeats but may differ in a detail not shown here. Identical values can stand only once. “Also recorded” adds a separate entry of the source. Like-named read-outs stand apart in the source and are kept apart here. Each block holds one compound with its values, some of them ahead of it.
Legend:
[1] = cited from earlier work; for FLUX (Feldman 1969) / FLUX (SCHAEFER 1979): human skin; for flux rates in comparison to the corticosterones: Table I
[2] = Experimental: To obtain maximum flux rates aliquots of the reservoir were analyzed during a period of 8 hours on day 2, day 3, and day 7.
[3] = cited from earlier work; for oral effectiveness: "first pass" inactivation
[4] = In vitro mouse skin permeation from patch, Franz diffusion cell; details: for Rate of permeation: 2.4 sq. cm., estradiol value is a minimum not corrected for saturation effects, maximum flux expected nearly 2-3 times greater
Experimental: A typical sustained release for the release of levonorgestrel is: a 9.4 square centimeter of Johnson and Johnson Rayon™ First Aid Tape-Hypo-Allergenic--1 inch wide, 1.5 inch long for the impervious backing and to form the adhesive layer and a 2 square centimeter ID--2.25 square centimeter OD--2/3 mm thick teflon ring. […] Microspheres are prepared from the levonorgestrel and the poly-L(-)lactide as follows: Prepare a 2.5 percent wt/v solution of polyvinyl alcohol (PVA) #523 in one liter of distilled water; prepare a 15 percent wt/v solution of poly-L-(-)lactide, approx. 1 R.S.V. in 300 ml of reagent grade methylene chloride; mix 5 ml of the poly-L-(-)lactide solution, 10 ml methylene chloride and 5 grams of levonorgestrel to form a uniform slurry; take the 1 l of PVA solution and pour it into a 2 l stainless steel beaker. Stir at approx. 1000 RPM (1550×0.7) and heat at low temperature, (approx. 35° C.); add levonorgestrel slurry. Heat approx. 4 hours, then turn off heat and stirrer; wet sieve off the 45-106 um size fraction; and dry in vacuum oven at room temperature and recover the solid microspheres. Then 45 mg of these solid microspheres are mixed with 85 mg of Vaseline or a viscous vehicle (trademark of Chesebrough-Pond's, Inc.). The Teflon ring is placed in the center on the adhesive side of the tape and the Vaseline mixture is then spread to uniform thickness iside the Teflon ring. The porous membrane is then placed over the mixture of Vaseline to form a complete patch. An estradiol patch is similarly prepared using 70 mg of Vaseline with 38 mg of microspheres containing estradiol.
In Vitro mouse skin permeation studies were conducted with a 2.4 square centimeter patch which was placed in a 20 mm diameter water jacketted Franz diffusion cell mounted on a 9-cell Drive Unit/Mounting Assembly. The water jacket temperature of the cells was controlled by a bath and water circulator which is maintained at 37° C. This system is widely used in the pharmaceutical industry for measuring the permeability of percutaneous patches across animal and cadaver skins.
Release of each drug was determined as a function of time by analysis of aliquots of the contents of the reservoir in a Waters High Pressure Liquid Chromatograph (HPLC) using a u Bondpak C-18 radial pack column with a mobile phase of 60% ethanol in water. The steroids were measured in a uv detector at a wavelength of 280 nm for estradiol and 254 for levonorgestrel.
Pieces of full thickness abdominal skin were freshly excised from a 6 week old male nude mice and mounted individually on the Franz diffusion cell. Before use, the skins were washed three times in 200 ml normal saline to remove extraneous and other soluble material. The face membrane of the system was applied to the stratum corneum side of the skin. The skin permeation profile of each drug was followed by removing the liquid from the receptor compartment for assay at the appropriate intervals. The compartment was then filled with fresh saline and the permeation continued. Release of the drug was monitored in a liquid chromatograph (HPLC).

[5] = cited from earlier work
[6] = implantable drug delivery systems; cited from earlier work
[7] = cited from earlier work; remark: listed apart in the source

Compound: C[C@]12C[C@H](O)[C@H]3[C@@H](CCC4=CC(=O)CC[C@@]43C)[C@@H]1CC[C@@H]2C(=O)CO [Corticosterone]
- FLUX (Feldman 1969) [1]: 7.5 × 10^-12 MOLES/CM^2 HR

Compound: C[C@]12CC[C@@H]3c4ccc(O)cc4CC[C@H]3[C@@H]1CC[C@@H]2O [Estradiol, 17β estradiol]
- Estimated size needed to deliver required dose [2]: 5
- flux rates in comparison to the corticosterones [1]: fairly high
- FLUX (Feldman 1969) [1]: 8.2 × 10^-11 MOLES/CM^2 HR
- FLUX (SCHAEFER 1979) [1]: 5.8 × 10^-10 MOLES/CM^2 HR and 4.6 × 10^-10 MOLES/CM^2 HR
- oral effectiveness [3]: limited oral effectiveness
- permeation rate ([4]; 2.4 square centimeter estradiol patch, per day, mass unit not given): 5
- delivery across freshly excised mouse skin ([4]; 2.4 square centimeter patch (DermaPatch)): 5 micrograms/day
- Minimum dose absorbed ([4]; Table 3, 2.4 sq. cm. patch): > 5.2 mcg./24 hr.
- Rate of permeation ([4]; Table 3): > 0.09 mcg./sq. cm./hr.
- mouse skin permeation ([4]; day 1): 6 Micrograms/2.4 sq. cm.
- mouse skin permeation ([4]; day 2): 10 Micrograms/2.4 sq. cm.
- mouse skin permeation ([4]; day 3): 16 Micrograms/2.4 sq. cm.

Compound: C[C@]12CC[C@@H]3c4ccc(O)cc4CC[C@H]3[C@@H]1C[C@@H](O)[C@@H]2O [Estriol]
- FLUX (SCHAEFER 1979) [1]: 7.8 × 10^-11 MOLES/CM^2 HR

Compound: C[C@]12CCC(=O)C=C1CC[C@@H]1[C@@H]2[C@@H](O)C[C@@]2(C)[C@H]1CC[C@]2(O)C(=O)CO [Hydrocortisone]
- increase in the penetration of hydrocortisone ([5]; modified skin, when the skin is occluded): tenfold increase
- penetration of hydrocortisone when the skin is occluded ([5]; through modified skin, occluded): 10%
- penetration of hydrocortisone before increase ([5]; through modified skin, starting value, not occluded): 1%
- FLUX (Feldman 1969) [1]: 2.5 × 10^-11 MOLES/CM^2 HR

- Estimated size needed to deliver required dose ([2]; dose required 20 (levonorgestrel) or 25 (estradiol) mcg./day): 0.5 sq. cm.
- estimated delivery from a patch ([2]; patch surface area 0.5 square centimeters): 20 micrograms per day
- estimated delivery from a patch ([2]; patch surface area 5 square centimeters): 2.5 milligrams per day
- Minimum dose absorbed [4]: 43-160 mcg./24 hr.
- delivery across freshly excised mouse skin [4]: 43 micrograms/day
- Rate of permeation ([4]; Table 3): 0.75-2.8 mcg./sq. cm./hr.
- average rate of release (maximum flux rates) ([4]; aliquots during 8 hours on day 2, day 3 and day 7, 2.4 square centimeter patch): 6.7 micrograms per hour
- mouse skin permeation ([4]; day 1): about 25 Micrograms/2.4 sq. cm.
- mouse skin permeation ([4]; day 2): 90 Micrograms/2.4 sq. cm.
- mouse skin permeation ([4]; day 3): 140 Micrograms/2.4 sq. cm.
- mouse skin permeation ([4]; day 7): 270 Micrograms/2.4 sq. cm.
- mouse skin permeation ([4]; day 8): 375 Micrograms/2.4 sq. cm.
- mouse skin permeation ([4]; day 9): 405 Micrograms/2.4 sq. cm.
- mouse skin permeation ([4]; day 10): 570 Micrograms/2.4 sq. cm.
- mouse skin permeation ([4]; day 11): 505 Micrograms/2.4 sq. cm.
- mouse skin permeation ([4]; day 14): 590 Micrograms/2.4 sq. cm.
- rate of skin permeation ([4]; during 24 hours, membrane area 2.4 square centimeters): approximately 43 ug/day
Compound: C#C[C@]1(O)CC[C@H]2[C@@H]3CCC4=CC(=O)CC[C@@H]4[C@H]3CC[C@@]21CC [Levonorgestrel, levonorgestrel]
- skin permeation / release profile ([4]; abdominal skin of nude mouse): zero order release; also recorded: zero order rate
- average rate of release (maximum flux rates) ([4]; from 6.7 micrograms per hour, days 2, 3 and 7): 160 micrograms per day/2.4 square/centimeters
- dose sufficient to prevent fertility [6]: 30 micrograms per day

Compound: CC(=O)[C@H]1CC[C@H]2[C@@H]3CCC4=CC(=O)CC[C@]4(C)[C@H]3CC[C@]12C [Progesteone, progesterone]
- flux rates in comparison to the corticosterones [1]: fairly high
- FLUX (Feldman 1969) [1]: 3.4 × 10^-11 MOLES/CM^2 HR
- accumulation in subcutaneous tissue and underlying muscle ([7]; in vivo): more pronounced with percutaneous than with subcutaneous administration

Compound: C#C[C@]1(O)CC[C@H]2[C@@H]3CCc4cc(O)ccc4[C@H]3CC[C@@]21C [ethinylestradiol]
- oral effectiveness [3]: active orally
- inactivation by the liver and other tissues ([3]; oral): very low

Compound: CN(Cc1cnc2nc(N)nc(N)c2n1)c1ccc(C(=O)N[C@@H](CCC(=O)O)C(=O)O)cc1 [methotrexate]
- reduction of the duration of the reservoir ([7]; irritation increases epidermal turnover): ~50%

Compound: CN1CCCC1c1cccnc1 (stereo not shown) [nicotine]
- period maintained in the reservoir ([7]; compound which very rapidly penetrates and diffuses): 3 to 4 days

Compound: estrogen
- accumulation in subcutaneous tissue and underlying muscle ([7]; percutaneous versus subcutaneous administration): more pronounced with percutaneous than with subcutaneous administration

Source: US4687481A, “Transdermal drug delivery system” (priority 1986, dated 1987)
